Where two headings read alike, the source gives them in different places.

The subject of test [1] is primary human T-cells. Nature of the test: Proliferation assay after 5 days (CellTiter-Glo, CD3 stimulation; PBS counter screen). It is filed as cell-based. As to conditions: CD3 stimulation; for Emax / Emax proliferation (% activation): 5 days, normalized to reference compound A1 as stimulator control = 100%, DMSO neutral control; for Emax: read-out: Emax proliferation (% activation); for EC50: primary human T-cells, CellTiter-Glo after 5 days, EC50 of fitted sigmoidal curve, read-out: Tcell Proliferation CD3 EC50. A digest of the protocol:
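Luminescent ATP detection (CellTiter-Glo 2.0) quantified cell number 5 days after compounds went onto medium-only plates. Wells showing visible toxicity or precipitate were noted beforehand, and compounds that stimulated unstimulated cells or lowered viability were flagged.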
On the technique in general: In ATP-based viability assays light output follows the ATP content of the culture.

Another test has as its system MV-3 cells. The experiment in a line: T-cell - TCB - MV3 killing assay (MCSP-TCB, RFP object count by Incucyte). It is filed as cell-based, human. As to conditions: 5 d; for Emax: normalized: MCSP-TCB only = neutral control, 20 μM reference compound A1 = 100%, read-out: MSCP TCB killing MV-3 cells 5 d Emax; for EC50: primary human T-cells + MCSP-TCB, MV-3 RFP cells, read-out: MSCP TCB killing MV-3 cells 5 d EC50.

Test [2] deals with primary human T-cells.

On to `N[C@H]1CS(=O)(=O)c2ccc(-c3nnc(NC4CC(F)(F)C4)o3)cc2N(Cc2ccc(Cl)cc2)C1=O` [Example 397, (3R)-3-amino-5-[(4-chlorophenyl)methyl]-7-[5-[(3,3-difluorocyclobutyl)amino]-1,3,4-oxadiazol-2-yl]-1,1-dioxo-2,3-dihydro-1λ^6,5-benzothiazepin-4-one], for which the Emax was 82% in the test on primary human T-cells [1] (Homo sapiens, T-cell, 120 h) and 92% with MV-3 cells (Homo sapiens, MV-3, 120 h). The EC50 in the test with primary human T-cells [1] (Homo sapiens, T-cell, 120 h) turned out to be 2190 nM; in the test with MV-3 cells, 1850 nM; with primary human T-cells [2] it was 649 nM.
For the compound `CC(C)(C)Nc1nnc(-c2cc3c(cc2F)S(=O)(=O)C[C@H](N)C(=O)N3Cc2ccc(Cl)cc2)o1` [Example 488, (3R)-3-amino-7-[5-(tert-butylamino)-1,3,4-oxadiazol-2-yl]-5-[(4-chlorophenyl)methyl]-8-fluoro-1,1-dioxo-2,3-dihydro-1λ^6,5-benzothiazepin-4-one], the Emax came out at 105% in the test with primary human T-cells [1] (Homo sapiens, T-cell, 120 h) and 93% in the test on MV-3 cells (Homo sapiens, MV-3, 120 h). The EC50 in the test on primary human T-cells [1] (Homo sapiens, T-cell, 120 h) is 351 nM; in the test with MV-3 cells it was 300 nM; in the test on primary human T-cells [2], 254 nM.
Taken in the same sequence, the figures for `N[C@H]1CS(=O)(=O)c2cc(F)c(-c3nnc(NC4CC(F)(F)C4)o3)cc2N(Cc2ccc(Cl)cc2)C1=O` [Example 462, (3R)-3-amino-5-[(4-chlorophenyl)methyl]-7-[5-[(3,3-difluorocyclobutyl)amino]-1,3,4-oxadiazol-2-yl]-8-fluoro-1,1-dioxo-2,3-dihydro-1λ^6,5-benzothiazepin-4-one] were 121%, 100%, 562 nM, 350 nM and 986 nM.
The corresponding values for `N[C@H]1CS(=O)(=O)c2ccc(-c3nnc(NC4CCCC(F)(F)C4)o3)cc2N(Cc2ccc(Cl)cc2)C1=O` (stereo partly drawn) [Example 401, (3R)-3-amino-5-[(4-chlorophenyl)methyl]-7-[5-[(3,3-difluorocyclohexyl)amino]-1,3,4-oxadiazol-2-yl]-1,1-dioxo-2,3-dihydro-1λ^6,5-benzothiazepin-4-one] are 69%, 92%, 1130 nM, 1540 nM and 446 nM.
In the case of `CC(C)(CO)c1noc(-c2cc3c(cc2F)S(=O)(=O)C[C@H](N)C(=O)N3Cc2ccc(Cl)cc2)n1` (racemic) [Example 46], the Emax was found to be 94% with primary human T-cells [1] (Homo sapiens, T-cell, 120 h) and 83% with MV-3 cells (Homo sapiens, MV-3, 120 h). The EC50 in the test with primary human T-cells [1] (Homo sapiens, T-cell, 120 h) amounted to 1820 nM; with MV-3 cells, 1040 nM; with primary human T-cells [2], 686 nM.
With `CC(C)(C)n1nnc(-c2ccc3c(c2)N(Cc2ccc(Cl)cc2)C(=O)[C@@H](N)CS3(=O)=O)n1` [Example 36], the Emax in the test with primary human T-cells [1] (Homo sapiens, T-cell, 120 h) worked out at 86%; in the test on MV-3 cells (Homo sapiens, MV-3, 120 h), 81%. The EC50 in the test with primary human T-cells [1] (Homo sapiens, T-cell, 120 h) came out at 404 nM; in the test with MV-3 cells, 390 nM; in the test with primary human T-cells [2] it was 472 nM.
The corresponding values for `N[C@H]1CS(=O)(=O)c2cc(F)c(-c3nc(CC(F)(F)F)no3)cc2N(Cc2ccc(Cl)cc2)C1=O` [Example 49, (3R)-3-amino-5-[(4-chlorophenyl)methyl]-8-fluoro-1,1-dioxo-7-[3-(2,2,2-trifluoroethyl)-1,2,4-oxadiazol-5-yl]-2,3-dihydro-1λ^6,5-benzothiazepin-4-one] are 112%, 100%, 585 nM, 170 nM and 2180 nM.
For `CC[C@H](NC)C(=O)N[C@H]1CS(=O)(=O)c2cc(F)c(-c3nnc(C(C)(C)C)o3)cc2N(Cc2ccc(Cl)cc2)C1=O` [Example 270, (2S)-2-(methylamino)-N-[(3R)-7-(5-tert-butyl-1,3,4-oxadiazol-2-yl)-5-[(4-chlorophenyl)methyl]-8-fluoro-1,1,4-trioxo-2,3-dihydro-1λ^6,5-benzothiazepin-3-yl]butanamide], the “Emax proliferation (% activation)” value in the test on primary human T-cells [1] amounted to 111 % activation. Moreover, the EC50 was 39.7 nM with primary human T-cells [1], 20 nM with MV-3 cells and 57.4 nM in the test on primary human T-cells [2]. In the test on MV-3 cells (Homo sapiens, MV-3, 120 h), the Emax worked out at 81%.
Turning to `CC(C)(C)c1nnc(-c2ccc3c(c2)N(Cc2ccc(C(C)(C)C#N)cc2)C(=O)[C@@H](N)CS3(=O)=O)o1` [Example 437, 2-[4-[[(3R)-3-amino-7-(5-tert-butyl-1,3,4-oxadiazol-2-yl)-1,1,4-trioxo-2,3-dihydro-1λ^6,5-benzothiazepin-5-yl]methyl]phenyl]-2-methyl-propanenitrile], the Emax in the test with primary human T-cells [1] (Homo sapiens, T-cell, 120 h) came to 112%; in the test on MV-3 cells (Homo sapiens, MV-3, 120 h), 88%. Moreover, the EC50 with primary human T-cells [1] (Homo sapiens, T-cell, 120 h) stood at 698 nM; with MV-3 cells (Homo sapiens, MV-3, 120 h) it was 340 nM; with primary human T-cells [2] it was 1400 nM.
As for `N[C@H]1C[S+]([O-])c2cc(F)c(-c3noc(N4CCOC5(CC5)C4)n3)cc2N(Cc2ccc(Cl)cc2)C1=O` (single isomer, unassigned; epimer a) [Example 211], the EC50 amounted to 326 nM in the test on primary human T-cells [1]; 45 nM with MV-3 cells (Homo sapiens, MV-3, 120 h); 793 nM with primary human T-cells [2]. Also, the Emax in the test on MV-3 cells (Homo sapiens, MV-3, 120 h) amounted to 86%.
Take `CCc1cn(-c2cc3c(cc2F)S(=O)(=O)C[C@H](N)C(=O)N3Cc2ccc(Cl)cc2)nn1` [Example 3, (3R)-3-amino-5-[(4-chlorophenyl)methyl]-7-(4-ethyltriazol-1-yl)-8-fluoro-1,1-dioxo-2,3-dihydro-1λ^6,5-benzothiazepin-4-one]: the Emax in the test on primary human T-cells [1] (Homo sapiens, T-cell, 120 h) came to 68%; in the test on MV-3 cells (Homo sapiens, MV-3, 120 h) it was 100%. The EC50 with primary human T-cells [1] (Homo sapiens, T-cell, 120 h) turned out to be 4300 nM; with MV-3 cells, 1550 nM; in the test with primary human T-cells [2], 12000 nM.
Taken in the same sequence, the figures for `CC(C)(C)c1nnc(-c2cc3c(cc2F)S(=O)(=O)C[C@H](N)C(=O)N3Cc2ccc(OC(F)(F)C(F)F)cc2)o1` [Example 232, (3R)-3-amino-7-(5-tert-butyl-1,3,4-oxadiazol-2-yl)-8-fluoro-1,1-dioxo-5-[[4-(1,1,2,2-tetrafluoroethoxy)phenyl]methyl]-2,3-dihydro-1λ^6,5-benzothiazepin-4-one] were 127%, 83%, 57.6 nM, 30 nM and 37 nM.
Taken in the same sequence, the figures for `N[C@H]1CS(=O)(=O)c2cc(F)c(-c3nnc(N4CCOCC4)o3)cc2N(Cc2ccc(Cl)cc2)C1=O` [Example 454, (3R)-3-amino-5-[(4-chlorophenyl)methyl]-8-fluoro-7-(5-morpholino-1,3,4-oxadiazol-2-yl)-1,1-dioxo-2,3-dihydro-1λ^6,5-benzothiazepin-4-one] were 129%, 100%, 309 nM, 70 nM and 97.7 nM.
Taken in the same sequence, the figures for `COC(=O)N1CCC(C)(c2nnc(-c3cc4c(cc3F)S(=O)(=O)C[C@H](N)C(=O)N4Cc3ccc(Cl)cc3)o2)CC1` [Example 171, methyl 4-methyl-4-[5-[(3R)-3-amino-5-[(4-chlorophenyl)methyl]-8-fluoro-1,1,4-trioxo-2,3-dihydro-1λ^6,5-benzothiazepin-7-yl]-1,3,4-oxadiazol-2-yl]piperidine-1-carboxylate] were 93%, 100%, 55.5 nM, 40 nM and 75.7 nM.
In the case of `CN1CC(c2nnc(-c3cc4c(cc3F)S(=O)(=O)C[C@H](N)C(=O)N4Cc3ccc(Cl)cc3)o2)CC(F)(F)C1` (stereo partly drawn) [Example 451, (3R)-3-amino-5-[(4-chlorophenyl)methyl]-7-[5-(5,5-difluoro-1-methyl-3-piperidyl)-1,3,4-oxadiazol-2-yl]-8-fluoro-1,1-dioxo-2,3-dihydro-1λ^6,5-benzothiazepin-4-one], the “Emax proliferation (% activation)” value with primary human T-cells [1] was 200 % activation. Besides, the EC50 came out at 82.1 nM in the test on primary human T-cells [1], 160 nM with MV-3 cells and 153 nM with primary human T-cells [2]. For the same compound, the Emax in the test with MV-3 cells (Homo sapiens, MV-3, 120 h) was determined as 88%.

The values are drawn from patent US20240368150A1 (Hoffmann-La Roche Inc., priority 2021, published 2024).
